In the experiment the target is cloned human NR1/NR2B ion channels (Homo sapiens (Human), UniProt Q05586+Q13224). The experiment in a line: HNR2BC: effects of test articles on cloned human NR1/NR2B ion channels expressed in mammalian cells (FLIPR calcium flux). The following applies: Table 5. The format is cell-based. An outline of the steps:
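In a stable Tet-On-induced cell line expressing human GluN1/GluN2B, Calcium 5-loaded cells were preincubated 5 min with compound, then stimulated 5 min with glutamate at ~EC80 plus 10 μM glycine, in pH 7.4 HEPES buffer. FLIPR calcium fluorescence was normalized to control wells.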
On the technique in general: Calcium flux is commonly read through the fluorescence of an indicator in the cells.

[1] abbreviates: cloned human NR1/NR2B ion channels.

Counter-ions that a name gives are not always drawn.

Chain of cloned human NR1/NR2B ion channels (Q13224 27-1484, other chains not shown): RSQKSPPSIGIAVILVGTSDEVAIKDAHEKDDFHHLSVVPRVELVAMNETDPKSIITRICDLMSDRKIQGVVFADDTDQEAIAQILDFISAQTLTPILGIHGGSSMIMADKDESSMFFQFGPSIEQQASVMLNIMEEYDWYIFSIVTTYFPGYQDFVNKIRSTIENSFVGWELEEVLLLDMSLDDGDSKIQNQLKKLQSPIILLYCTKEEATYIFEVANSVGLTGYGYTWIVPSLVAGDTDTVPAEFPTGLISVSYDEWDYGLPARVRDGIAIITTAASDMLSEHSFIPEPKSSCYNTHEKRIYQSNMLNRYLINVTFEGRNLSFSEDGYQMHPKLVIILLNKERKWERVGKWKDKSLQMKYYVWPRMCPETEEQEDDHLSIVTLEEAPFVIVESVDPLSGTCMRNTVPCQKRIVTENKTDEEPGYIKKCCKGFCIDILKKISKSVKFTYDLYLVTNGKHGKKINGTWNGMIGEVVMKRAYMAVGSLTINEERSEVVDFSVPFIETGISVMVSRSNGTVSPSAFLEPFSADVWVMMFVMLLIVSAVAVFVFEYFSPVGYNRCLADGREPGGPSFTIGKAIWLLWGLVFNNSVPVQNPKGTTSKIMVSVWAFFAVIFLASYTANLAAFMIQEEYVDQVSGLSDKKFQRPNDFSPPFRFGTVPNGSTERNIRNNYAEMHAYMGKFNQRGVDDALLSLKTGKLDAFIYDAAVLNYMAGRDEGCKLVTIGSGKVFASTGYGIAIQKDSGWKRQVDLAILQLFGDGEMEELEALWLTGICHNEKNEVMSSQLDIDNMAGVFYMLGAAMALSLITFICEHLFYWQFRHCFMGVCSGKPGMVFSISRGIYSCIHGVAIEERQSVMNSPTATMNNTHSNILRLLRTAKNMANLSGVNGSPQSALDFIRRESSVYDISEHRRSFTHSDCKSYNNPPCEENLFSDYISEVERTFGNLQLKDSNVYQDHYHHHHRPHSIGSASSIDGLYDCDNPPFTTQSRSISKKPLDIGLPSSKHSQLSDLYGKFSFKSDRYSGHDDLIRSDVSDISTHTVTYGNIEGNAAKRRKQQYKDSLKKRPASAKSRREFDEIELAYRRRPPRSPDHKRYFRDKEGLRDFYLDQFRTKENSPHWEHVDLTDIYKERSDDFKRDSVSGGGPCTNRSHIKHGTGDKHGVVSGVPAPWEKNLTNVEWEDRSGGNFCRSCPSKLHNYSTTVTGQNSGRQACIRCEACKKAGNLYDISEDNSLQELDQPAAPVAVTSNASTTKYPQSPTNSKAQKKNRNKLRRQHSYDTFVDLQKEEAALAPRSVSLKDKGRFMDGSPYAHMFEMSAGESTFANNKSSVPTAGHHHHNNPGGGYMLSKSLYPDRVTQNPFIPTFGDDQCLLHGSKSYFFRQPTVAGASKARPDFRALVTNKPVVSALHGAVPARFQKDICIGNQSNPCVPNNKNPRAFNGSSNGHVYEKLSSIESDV

A word on the IC50: it is the concentration needed to halve the response being measured. On to `Cc1c(F)ccc(-c2cnc3c(F)cn(CC(=O)N4CC(F)C4)c3c2)c1F` [Example 488, 2-[6-(2,4-Difluoro-3-methyl-phenyl)-3-fluoro-pyrrolo[3,2-b]pyridin-1-yl]-1-(3-fluoroazetidin-1-yl)ethanone], for which, under setting [1], the IC50 is 15.8 nM.

Consider `CN(C)C(=O)Cn1cc(F)c2ncc(-c3ccc(F)c(Cl)c3)cc21` [Example 504, 2-[6-(3-Chloro-4-fluoro-phenyl)-3-fluoro-pyrrolo[3,2-b]pyridin-1-yl]-N,N-dimethyl-acetamide], for which the IC50 under setting [1] is 12.6 nM.

Regarding `O=C(Cn1ccc2ncc(-c3cccc(C(F)(F)F)c3F)cc21)N1CCC1` [Example 358, 1-(Azetidin-1-yl)-2-[6-[2-fluoro-3-(trifluoromethyl)phenyl]pyrrolo[3,2-b]pyridin-1-yl]ethanone trifluoroacetate salt], the IC50 (cloned human NR1/NR2B) is 39.8 nM.

Consider `CCC(=O)Cn1ccc2ncc(-c3ccc(F)c(C)c3)cc21` [Example 295, 1-[6-(4-Fluoro-3-methyl-phenyl)pyrrolo[3,2-b]pyridin-1-yl]butan-2-one trifluoroacetate salt], for which the IC50 (cloned human NR1/NR2B) is 316 nM.

`Cc1noc(Cn2cc(Cl)c3ncc(-c4ccc(F)c(C)c4)cc32)n1` [Example 239, 5-[[3-Chloro-6-(4-fluoro-3-methyl-phenyl)pyrrolo[3,2-b]pyridin-1-yl]methyl]-3-methyl-1,2,4-oxadiazole]: under “cloned human NR1/NR2B”, the concentration for half-maximal inhibition (IC50) was 158 nM.

`CN(C)C(=O)Cn1cc(Cl)c2ncc(-c3cccc(Cl)c3)cc21` [Example 534, 2-[3-Chloro-6-(3-chlorophenyl)pyrrolo[3,2-b]pyridin-1-yl]-N,N-dimethyl-acetamide]: the IC50 under setting [1] is 31.6 nM.

As to `CCc1cccc(-c2cnc3c(F)cn(CC(=O)N(C)C)c3c2)c1` [Example 505, 2-[6-(3-Ethylphenyl)-3-fluoro-pyrrolo[3,2-b]pyridin-1-yl]-N,N-dimethyl-acetamide], under setting [1], the IC50 was 20 nM.

`Cc1ccc(-c2cnc3ccn(CC(=O)N4CCC4)c3c2)cn1` [Example 112, 1-(Azetidin-1-yl)-2-[6-(6-methyl-3-pyridyl)pyrrolo[3,2-b]pyridin-1-yl]ethanone]: under “cloned human NR1/NR2B”, the IC50 is 501 nM.

`O=C(Cn1ccc2ncc(-c3cccs3)cc21)N1CCC1` [Example 399, 1-(Azetidin-1-yl)-2-[6-(2-thienyl)pyrrolo[3,2-b]pyridin-1-yl]ethanone]: under setting [1], the IC50 was 158 nM.

Take `CN(C)C(=O)Cn1cc(Cl)c2ncc(-c3ccc(F)c(F)c3F)cc21` [Example 518, 2-[3-Chloro-6-(2,3,4-trifluorophenyl)pyrrolo[3,2-b]pyridin-1-yl]-N,N-dimethyl-acetamide]: the IC50 under setting [1] was 63.1 nM.

`CC1(O)CN(C(=O)Cn2ccc3ncc(-c4ccc(F)cc4)cc32)C1` [Example 202, 2-[6-(4-Fluorophenyl)pyrrolo[3,2-b]pyridin-1-yl]-1-(3-hydroxy-3-methyl-azetidin-1-yl)ethanone]: the IC50 (cloned human NR1/NR2B) was 126 nM.

Regarding `O=C(Cn1cc(Cl)c2ncc(-c3ccccc3)cc21)NC1CC1` [Example 1, 2-(3-Chloro-6-phenyl-pyrrolo[3,2-b]pyridin-1-yl)-N-cyclopropyl-acetamide], the half-inhibitory concentration (IC50) (cloned human NR1/NR2B) was 316 nM.

Take `Cc1cc2ncc(-c3ccc(F)cc3)cc2n1CC(=O)N1CCC1` [Example 46, 1-(Azetidin-1-yl)-2-[6-(4-fluorophenyl)-2-methyl-pyrrolo[3,2-b]pyridin-1-yl]ethanone]: the IC50 (cloned human NR1/NR2B) was 501 nM.

Turning to `O=C(Cn1ccc2ncc(-c3ccc(F)c(F)c3F)cc21)NC1CC1` [Example 249, N-Cyclopropyl-2-[6-(2,3,4-trifluorophenyl)pyrrolo[3,2-b]pyridin-1-yl]acetamide], the half-maximal inhibitory concentration (IC50) (cloned human NR1/NR2B) was 79.4 nM.

For orientation: pIC50 means the negative decadic logarithm of the IC50, by convention in mol/L. In the case of `O=C(Cn1cc(Cl)c2ncc(-c3ccc(F)c(F)c3)cc21)N1CC(F)(F)C1` [Example 34, 2-[3-Chloro-6-(3,4-difluorophenyl)pyrrolo[3,2-b]pyridin-1-yl]-1-(3,3-difluoroazetidin-1-yl)ethanone], the pIC50 (cloned human NR1/NR2B) was determined as 7.8.

With `O=C(Cn1ccc2ncc(-c3ccc(F)cc3)cc21)N1CC[C@H](F)C1` (single isomer, unassigned) [Example 293, trifluoroacetate salt], the IC50 (cloned human NR1/NR2B) was 31.6 nM.

For the compound `CCN(CC)C(=O)Cn1ccc2ncc(-c3ccc(F)c(C)c3)cc21` [Example 297, N,N-Diethyl-2-[6-(4-fluoro-3-methyl-phenyl)pyrrolo[3,2-b]pyridin-1-yl]acetamide], the half-maximal inhibitory concentration (IC50) (cloned human NR1/NR2B) was 39.8 nM.

Turning to `Cc1cccc(-c2cnc3ccn(CC(=O)NC4CC4)c3c2)c1` [Example 155, N-Cyclopropyl-2-[6-(m-tolyl)pyrrolo[3,2-b]pyridin-1-yl]acetamide trifluoroacetate salt], for the setting “cloned human NR1/NR2B”, the IC50 was 251 nM.

Turning to `O=C(Cn1cc(F)c2ncc(-c3ccc(F)c(F)c3)cc21)C1CC1` [Example 136, 1-Cyclopropyl-2-[6-(3,4-difluorophenyl)-3-fluoro-pyrrolo[3,2-b]pyridin-1-yl]ethanone], the IC50 (cloned human NR1/NR2B) was 63.1 nM.

As for `Cc1cccc(-c2cnc3c(Cl)cn(CC(=O)N4CC(F)C4)c3c2)c1F` [Example 536, 2-[3-Chloro-6-(2-fluoro-3-methyl-phenyl)pyrrolo[3,2-b]pyridin-1-yl]-1-(3-fluoroazetidin-1-yl)ethanone], under setting [1], the IC50 was 25.1 nM.

On to `O=C(Cn1ccc2ncc(-c3ccc(F)c(F)c3F)cc21)N1CC(F)C1` [Example 455, 1-(3-Fluoroazetidin-1-yl)-2-[6-(2,3,4-trifluorophenyl)pyrrolo[3,2-b]pyridin-1-yl]ethanone], for which, under setting [1], the IC50 is 31.6 nM.

For the compound `Cc1cc(-c2cnc3ccn(C/C(=N/O)C4CC4)c3c2)ccc1F` [Example 286, 1-Cyclopropyl-2-[6-(4-fluoro-3-methyl-phenyl)pyrrolo[3,2-b]pyridin-1-yl]ethanone oxime trifluoroacetate salt], the IC50 (cloned human NR1/NR2B) is 158 nM.

For `CN(C)C(=O)Cn1ccc2ncc(-c3cccc(C(F)(F)F)c3F)cc21` [Example 425, 2-[6-[2-Fluoro-3-(trifluoromethyl)phenyl]pyrrolo[3,2-b]pyridin-1-yl]-N,N-dimethyl-acetamide], the IC50 under setting [1] was 316 nM.

As to `O=C(Cn1cc(F)c2ncc(-c3ccc(Cl)s3)cc21)C1CC1` [Example 318, 2-[6-(5-Chloro-2-thienyl)-3-fluoro-pyrrolo[3,2-b]pyridin-1-yl]-1-cyclopropyl-ethanone], under “cloned human NR1/NR2B”, the IC50 was 20 nM.

As for `O=C(Cn1cc(F)c2ncc(-c3ccc(F)c(Cl)c3)cc21)N1CCC1` [Example 481, 1-(Azetidin-1-yl)-2-[6-(3-chloro-4-fluoro-phenyl)-3-fluoro-pyrrolo[3,2-b]pyridin-1-yl]ethanone], the concentration for half-maximal inhibition (IC50) under setting [1] was 25.1 nM.

Turning to `O=C(Cn1cc(Cl)c2ncc(-c3ccc(F)cc3)cc21)NC1CC1` [Example 2, 2-[3-Chloro-6-(4-fluorophenyl)pyrrolo[3,2-b]pyridin-1-yl]-N-cyclopropyl-acetamide], the IC50 (cloned human NR1/NR2B) was 126 nM.

With `Cc1cccc(-c2cnc3ccn(Cc4cc(C)on4)c3c2)c1` [Example 61, 5-Methyl-3-[[6-(m-tolyl)pyrrolo[3,2-b]pyridin-1-yl]methyl]isoxazole trifluoroacetate salt], the IC50 (cloned human NR1/NR2B) was 398 nM.

Regarding `O=C(Cn1ccc2ncc(-c3ccc(F)c(F)c3)cc21)N1CCCC1` [Example 367, 2-[6-(3,4-Difluorophenyl)pyrrolo[3,2-b]pyridin-1-yl]-1-pyrrolidin-1-yl-ethanone], the IC50 under setting [1] is 50.1 nM.
